Results: US7517874B2 (priority 2007, dated 2009)

What was measured:
[1] = molecular target: human CB1 receptor (hCB1) (Homo sapiens, UniProt P21554); assay: cell-based; assay type: cell-based; details: for +/− HCB1: agonist or inverse agonist at hCB1
Outline: (§1)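 Readout: LANCE TR-FRET cAMP, back-calculated from a concurrent standard curve and scaled between forskolin-only and forskolin + 1 μM CP55,940 wells. EC50 and intrinsic activity came from four-parameter fits.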

rat CB2 receptor (rCB2) = molecular target: T1, rat CB2 receptor (rCB2) (Rattus norvegicus, UniProt Q9QZN9); assay: cell-based; assay type: cell-based; details: for +/− RCB2: agonist or inverse agonist at rCB2
T1 sequence (Q9QZN9 1-360): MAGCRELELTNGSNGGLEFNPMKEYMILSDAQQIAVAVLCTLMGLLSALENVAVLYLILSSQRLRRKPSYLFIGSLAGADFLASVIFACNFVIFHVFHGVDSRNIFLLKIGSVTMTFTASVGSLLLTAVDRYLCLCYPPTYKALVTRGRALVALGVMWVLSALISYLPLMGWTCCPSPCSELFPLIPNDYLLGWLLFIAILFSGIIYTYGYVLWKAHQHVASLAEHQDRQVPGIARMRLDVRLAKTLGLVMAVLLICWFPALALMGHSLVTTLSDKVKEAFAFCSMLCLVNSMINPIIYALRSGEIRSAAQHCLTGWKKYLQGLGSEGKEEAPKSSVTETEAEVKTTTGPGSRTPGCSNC
Outline: as §1

human CB1 receptor (hCB1), sequence (P21554 whole entry): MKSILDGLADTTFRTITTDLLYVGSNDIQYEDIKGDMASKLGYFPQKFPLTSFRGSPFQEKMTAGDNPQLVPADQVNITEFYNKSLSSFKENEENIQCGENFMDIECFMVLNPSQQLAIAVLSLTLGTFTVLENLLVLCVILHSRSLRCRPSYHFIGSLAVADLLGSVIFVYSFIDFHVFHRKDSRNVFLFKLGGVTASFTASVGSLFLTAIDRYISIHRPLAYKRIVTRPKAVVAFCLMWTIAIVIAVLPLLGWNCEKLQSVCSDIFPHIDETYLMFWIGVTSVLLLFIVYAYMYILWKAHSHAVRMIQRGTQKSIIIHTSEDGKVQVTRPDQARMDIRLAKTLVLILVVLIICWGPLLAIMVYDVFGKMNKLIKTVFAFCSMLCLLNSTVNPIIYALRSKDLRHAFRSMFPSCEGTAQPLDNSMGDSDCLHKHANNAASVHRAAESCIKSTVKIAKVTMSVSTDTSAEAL

| SMILES | EC50 [1] | +/− RCB2 (rat CB2 receptor (rCB2)) | +/− HCB1 [1] | EC50 (rat CB2 receptor (rCB2)) |
| --- | --- | --- | --- | --- |
| CNC(=O)[C@@H](NC(=O)c1nc(-c2cccs2)n2c1CN(C)CCC2)C(C)(C)C [Compound 349, (S)-N-(3,3-dimethyl-1-(methylamino)-1-oxobutan-2-yl)-8-methyl-3-(thiophen-2-yl)-6,7,8,9-tetrahydro-5H-imidazo[1,5-a][1,4]diazepine-1-carboxamide] | > 10 µM | + |  |  |
| CNC(=O)[C@@H](NC(=O)c1nc(-c2ccc(OC)c(C)c2)n2c1CN(C)CCC2)C(C)(C)C [Compound 350, (S)-N-(3,3-dimethyl-1-(methylamino)-1-oxobutan-2-yl)-3-(4-methoxy-3-methylphenyl)-8-methyl-6,7,8,9-tetrahydro-5H-imidazo[1,5-a][1,4]diazepine-1-carboxamide] | > 10 µM | − |  |  |
| CNC(=O)[C@@H](NC(=O)c1nc(-c2cc3ccccc3o2)n2c1CN(C)CCC2)C(C)(C)C [Compound 351, (S)-3-(benzofuran-2-yl)-N-(3,3-dimethyl-1-(methylamino)-1-oxobutan-2-yl)-8-methyl-6,7,8,9-tetrahydro-5H-imidazo[1,5-a][1,4]diazepine-1-carboxamide] | > 10 µM | + |  |  |
| CNC(=O)[C@@H](NC(=O)c1nc(-c2cscc2C)n2c1CN(C)CCC2)C(C)(C)C [Compound 352, (S)-N-(3,3-dimethyl-1-(methylamino)-1-oxobutan-2-yl)-8-methyl-3-(4-methylthiophen-3-yl)-6,7,8,9-tetrahydro-5H-imidazo[1,5-a][1,4]diazepine-1-carboxamide] | > 10 µM | + |  |  |
| CNC(=O)[C@@H](NC(=O)c1nc(-c2ccccc2F)n2c1CN(C)CCC2)C(C)(C)C [Compound 353, (S)-N-(3,3-dimethyl-1-(methylamino)-1-oxobutan-2-yl)-3-(2-fluorophenyl)-8-methyl-6,7,8,9-tetrahydro-5H-imidazo[1,5-a][1,4]diazepine-1-carboxamide] | > 10 µM | + |  |  |
| CNC(=O)[C@@H](NC(=O)c1nc(-c2csc3ccccc23)n2c1CN(C)CCC2)C(C)(C)C [Compound 354, (S)-3-(benzo[b]thiophen-3-yl)-N-(3,3-dimethyl-1-(methylamino)-1-oxobutan-2-yl)-8-methyl-6,7,8,9-tetrahydro-5H-imidazo[1,5-a][1,4]diazepine-1-carboxamide] | > 10 µM | − |  |  |
| CNC(=O)[C@@H](NC(=O)c1nc(-c2ccc(F)cc2F)n2c1CN(C)CCC2)C(C)(C)C [Compound 355, (S)-3-(2,4-difluorophenyl)-N-(3,3-dimethyl-1-(methylamino)-1-oxobutan-2-yl)-8-methyl-6,7,8,9-tetrahydro-5H-imidazo[1,5-a][1,4]diazepine-1-carboxamide] |  | + | + |  |
| CNC(=O)[C@@H](NC(=O)c1nc(-c2cccc(Cl)c2F)n2c1CN(C)CCC2)C(C)(C)C [Compound 356, (S)-3-(3-chloro-2-fluorophenyl)-N-(3,3-dimethyl-1-(methylamino)-1-oxobutan-2-yl)-8-methyl-6,7,8,9-tetrahydro-5H-imidazo[1,5-a][1,4]diazepine-1-carboxamide] | > 10 µM |  |  | > 10 µM |
| CNC(=O)[C@@H](NC(=O)c1nc(-c2cc(Cl)c(C)cc2F)n2c1CN(C)CCC2)C(C)(C)C [Compound 357, (S)-3-(5-chloro-2-fluoro-4-methylphenyl)-N-(3,3-dimethyl-1-(methylamino)-1-oxobutan-2-yl)-8-methyl-6,7,8,9-tetrahydro-5H-imidazo[1,5-a][1,4]diazepine-1-carboxamide] | > 10 µM |  |  | > 10 µM |
| CNC(=O)[C@@H](NC(=O)c1nc(-c2ccc(OC)cc2F)n2c1CN(C)CCC2)C(C)(C)C [Compound 358] | > 10 µM | − |  |  |
| CNC(=O)[C@@H](NC(=O)c1nc(-c2cc(F)ccc2F)n2c1CN(C)CCC2)C(C)(C)C [Compound 359, (S)-3-(2,5-difluorophenyl)-N-(3,3-dimethyl-1-(methylamino)-1-oxobutan-2-yl)-8-methyl-6,7,8,9-tetrahydro-5H-imidazo[1,5-a][1,4]diazepine-1-carboxamide] | > 10 µM | + |  |  |
| CNC(=O)[C@@H](NC(=O)c1nc(-c2ccc(C)c(F)c2)n2c1CN(C)CCC2)C(C)(C)C [Compound 360, (S)-N-(3,3-dimethyl-1-(methylamino)-1-oxobutan-2-yl)-3-(3-fluoro-4-methylphenyl)-8-methyl-6,7,8,9-tetrahydro-5H-imidazo[1,5-a][1,4]diazepine-1-carboxamide] | > 10 µM |  |  | > 10 µM |
| CNC(=O)[C@@H](NC(=O)c1nc(-c2cc(Cl)ccc2F)n2c1CN(C)CCC2)C(C)(C)C [Compound 361, (S)-3-(5-chloro-2-fluorophenyl)-N-(3,3-dimethyl-1-(methylamino)-1-oxobutan-2-yl)-8-methyl-6,7,8,9-tetrahydro-5H-imidazo[1,5-a][1,4]diazepine-1-carboxamide] |  | + | + |  |
| CNC(=O)[C@@H](NC(=O)c1nc(-c2cc(C)ccc2F)n2c1CN(C)CCC2)C(C)(C)C [Compound 362, (S)-N-(3,3-dimethyl-1-(methylamino)-1-oxobutan-2-yl)-3-(2-fluoro-5-methylphenyl)-8-methyl-6,7,8,9-tetrahydro-5H-imidazo[1,5-a][1,4]diazepine-1-carboxamide] | > 10 µM | + |  |  |
| CNC(=O)[C@@H](NC(=O)c1nc(-c2cc(C(F)(F)F)ccc2F)n2c1CN(C)CCC2)C(C)(C)C [Compound 363, (S)-N-(3,3-dimethyl-1-(methylamino)-1-oxobutan-2-yl)-3-(2-fluoro-5-(trifluoromethyl)phenyl)-8-methyl-6,7,8,9-tetrahydro-5H-imidazo[1,5-a][1,4]diazepine-1-carboxamide] | > 10 µM | − |  |  |
| CNC(=O)[C@@H](NC(=O)c1nc(-c2cccc(C(F)(F)F)c2F)n2c1CN(C)CCC2)C(C)(C)C [Compound 364, (S)-N-(3,3-dimethyl-1-(methylamino)-1-oxobutan-2-yl)-3-(2-fluoro-3-(trifluoromethyl)phenyl)-8-methyl-6,7,8,9-tetrahydro-5H-imidazo[1,5-a][1,4]diazepine-1-carboxamide] | > 10 µM | − |  |  |
| CNC(=O)[C@@H](NC(=O)c1nc(-c2c(F)cccc2OC)n2c1CN(C)CCC2)C(C)(C)C [Compound 365, N-((S)-3,3-dimethyl-1-(methylamino)-1-oxobutan-2-yl)-3-(2-fluoro-6-methoxyphenyl)-8-methyl-6,7,8,9-tetrahydro-5H-imidazo[1,5-a][1,4]diazepine-1-carboxamide] | > 10 µM | + |  |  |
| CNC(=O)[C@@H](NC(=O)c1nc(-c2ccc(C)cc2Cl)n2c1CN(C)CCC2)C(C)(C)C [Compound 367, (S)-3-(2-chloro-4-methylphenyl)-N-(3,3-dimethyl-1-(methylamino)-1-oxobutan-2-yl)-8-methyl-6,7,8,9-tetrahydro-5H-imidazo[1,5-a][1,4]diazepine-1-carboxamide] | > 10 µM |  |  | > 10 µM |
| CNC(=O)[C@@H](NC(=O)c1nc(-c2ccc(C(F)(F)F)cc2F)n2c1CN(C)CCC2)C(C)(C)C [Compound 368, (S)-N-(3,3-dimethyl-1-(methylamino)-1-oxobutan-2-yl)-3-(2-fluoro-4-(trifluoromethyl)phenyl)-8-methyl-6,7,8,9-tetrahydro-5H-imidazo[1,5-a][1,4]diazepine-1-carboxamide] |  | + | + |  |
| CNC(=O)[C@@H](NC(=O)c1nc(-c2cccc(F)c2F)n2c1CN(C)CCC2)C(C)(C)C [Compound 369, (S)-3-(2,3-difluorophenyl)-N-(3,3-dimethyl-1-(methylamino)-1-oxobutan-2-yl)-8-methyl-6,7,8,9-tetrahydro-5H-imidazo[1,5-a][1,4]diazepine-1-carboxamide] | > 10 µM | + |  |  |
| CNC(=O)[C@@H](NC(=O)c1nc(-c2cc(Cl)c(F)cc2F)n2c1CN(C)CCC2)C(C)(C)C [Compound 370, (S)-3-(5-chloro-2,4-difluorophenyl)-N-(3,3-dimethyl-1-(methylamino)-1-oxobutan-2-yl)-8-methyl-6,7,8,9-tetrahydro-5H-imidazo[1,5-a][1,4]diazepine-1-carboxamide] | > 10 µM | + |  |  |
| CNC(=O)[C@@H](NC(=O)c1nc(-c2cc(F)c(F)cc2F)n2c1CN(C)CCC2)C(C)(C)C [Compound 371, (S)-N-(3,3-dimethyl-1-(methylamino)-1-oxobutan-2-yl)-8-methyl-3-(2,4,5-trifluorophenyl)-6,7,8,9-tetrahydro-5H-imidazo[1,5-a][1,4]diazepine-1-carboxamide] |  | + | + |  |
| CNC(=O)[C@@H](NC(=O)c1nc(-c2ccc(F)c(Cl)c2)n2c1CN(C)CCC2)C(C)(C)C [Compound 372, (S)-3-(3-chloro-4-fluorophenyl)-N-(3,3-dimethyl-1-(methylamino)-1-oxobutan-2-yl)-8-methyl-6,7,8,9-tetrahydro-5H-imidazo[1,5-a][1,4]diazepine-1-carboxamide] | > 10 µM | + |  |  |
| CNC(=O)[C@@H](NC(=O)c1nc(-c2ccc(Cl)c(F)c2)n2c1CN(C)CCC2)C(C)(C)C [Compound 373] | > 10 µM | + |  |  |
